# System: Aβ 42 production
# Assay: Quantification of Aβ Peptide in Culture of Neurons from Rat Fetus Brain
# Format: cell-based
# Settings: Neuron, 72 h; rat primary neuronal culture (cerebral cortex, embryonic day 18 Wistar rats); medium collected three days after addition of the compound; Aβ ELISA; read-out: Effect of reducing Aβ 42 production IC50
# Experimental: Quantification of Aβ Peptide in Culture of Neurons from Rat Fetus Brain
# (1) Rat Primary Neuronal Culture
# Primary neuronal cultures were prepared from the cerebral cortex of embryonic day 18 Wistar rats (Charles River Japan, Yokohama, Japan). Specifically, the embryos were aseptically removed from pregnant rats under ether anesthesia. The brain was isolated from the embryo and immersed in an ice-cold L-15 medium (Invitrogen Corp. Cat #11415-064, Carlsbad, Calif., USA, or SIGMA L1518, for example). The cerebral cortex was collected from the isolated brain under a stereoscopic microscope. The cerebral cortex fragments collected were enzymatically treated in an enzyme solution containing 0.25% trypsin (Invitrogen Corp. Cat #15050-065, Carlsbad, Calif., USA) and 0.01% DNase (Sigma D5025, St. Louis, Mo., USA) at 37° C. for 30 minutes to disperse the cells. Here, the enzymatic reaction was stopped by adding inactivated horse serum to the solution. The enzymatically treated solution was centrifuged at 1,500 rpm for five minutes to remove the supernatant. 5 to 10 ml of a medium was added to the resulting cell mass. Neurobasal medium (Invitrogen Corp. Cat #21103-049, Carlsbad, Calif., USA) supplemented with 2% B27 supplement (Invitrogen Corp. Cat #17504-044, Carlsbad, Calif., USA), 25 μM 2-mercaptoethanol (2-ME, WAKO Cat #139-06861, Osaka, Japan), 0.5 mM L-glutamine (Invitrogen Corp. Cat #25030-081, Carlsbad, Calif., USA), and Antibiotics-Antimycotics (Invitrogen Corp. Cat #15240-062, Carlsbad, Calif., USA) was used as the medium (Neurobasal/B27/2-ME). However, the above Neurobasal medium not supplemented with 2-ME (Neurobasal/B27) was used for the assay. The cells were redispersed by mild pipetting of the cell mass to which the medium was added. The cell dispersion was filtered through a 40-μm nylon mesh (Cell Strainer, Cat #35-2340, Becton Dickinson Labware, Franklin Lakes, N.J., USA) to remove the remaining cell mass, and thus a neuronal cell suspension was obtained. The neuronal cell suspension was diluted with the medium and then plated in a volume of 100 μl/well at an initial cell density of 5×10^5 cells/cm^2 in a 96-well polystyrene culture plate pre-coated with poly-L or D-lysine (Falcon Cat #35-3075, Becton Dickinson Labware, Franklin Lakes, N.J., USA coated with poly-L-lysine using the method shown below, or BIOCOAT™ cell environments Poly-D-lysine cell ware 96-well plate, Cat #35-6461, Becton Dickinson Labware, Franklin Lakes, N.J., USA). Poly-L-lysine coating was carried out as follows. 100 μg/ml of a poly-L-lysine (SIGMA P2636, St. Louis, Mo., USA) solution was aseptically prepared with a 0.15 M borate buffer (pH 8.5). 100 μl/well of the solution was added to the 96-well polystyrene culture plate and incubated at room temperature for one or more hours or at 4° C. overnight or longer. The coated 96-well polystyrene culture plate was washed with sterile water four or more times, and then dried or rinsed with, for example, sterile PBS or medium, and used for cell plating. The plated cells were cultured in the culture plate at 37° C. in 5% CO2-95% air for one day. Then, the total amount of the medium was replaced with a fresh Neurobasal™/B27/2-ME medium, and then the cells were cultured for further three days.
# The drug was added to the culture plate on Day 4 of culture as follows. The total amount of the medium was removed from the wells, and 180 μl/well of Neurobasal medium not containing 2-ME and containing 2% B-27 (Neurobasal/B27) was added thereto. A solution of the test compound in dimethyl sulfoxide (hereinafter abbreviated as DMSO) was diluted with Neurobasal/B27 at 10-fold of the final concentration. 20 μl/well of the dilution was added to and sufficiently mixed with the medium. The final DMSO concentration was 1% or less. Only DMSO was added to the control group.
# The cells were cultured for three days after addition of the compound, and the total amount of the medium was collected. […]
row,Structure (SMILES),IC50
1,"COc1cc(/C=C/c2nnc(C(C)c3ccc(F)cc3)[nH]2)ccc1-n1cnc(C)c1 (racemic) [Example 31, 3-[1-(4-fluorophenyl)ethyl]-5-{(E)-2-[3-methoxy-4-(4-methyl-1H-imidazol-1-yl)phenyl]vinyl}-4H-[1,2,4]triazole]",33 nM
2,"COc1cc(/C=C/c2nnc(C(C)c3ccc(F)cc3)[nH]2)ccc1-n1cnc(C)c1 (single isomer, unassigned) [Example 36, (+)-3-[1-(4-fluorophenyl)ethyl]-5-{(E)-2-[3-methoxy-4-(4-methyl-1H-imidazol-1-yl)phenyl]vinyl}-4H-[1,2,4]triazole]",34 nM
3,"COc1cc(/C=C/c2nc3n(n2)CCCC3c2ccc(F)cc2)ccc1-n1cnc(C)c1 (single isomer, unassigned) [Example 52, (−)-8-(4-fluorophenyl)-2-{(E)-2-[3-methoxy-4-(4-methyl-1H-imidazol-1-yl)phenyl]vinyl}-5,6,7,8-tetrahydro[1,2,4]triazolo[1,5-a]pyridine]",14 nM
4,"COc1cc(/C=C/c2nc3n(n2)CCCC3c2cc(F)c(F)c(F)c2)ccc1-n1cnc(C)c1 (single isomer, unassigned) [Example 54, (−)-2-{(E)-2-[3-methoxy-4-(4-methyl-1H-imidazol-1-yl)phenyl]vinyl}-8-(3,4,5-trifluorophenyl)-5,6,7,8-tetrahydro[1,2,4]triazolo[1,5-a]pyridine]",14 nM
5,"COc1cc(/C=C(\F)c2nc3n(n2)CCC[C@@H]3c2cc(F)c(F)c(F)c2)ccc1-n1cnc(C)c1 (single isomer, unassigned) [Example 58, (−)-2-{(Z)-1-fluoro-2-[3-methoxy-4-(4-methyl-1H-imidazol-1-yl)phenyl]vinyl}-8-(3,4,5-trifluorophenyl)-5,6,7,8-tetrahydro[1,2,4]triazolo[1,5-a]pyridine]",39 nM
6,"COc1cc(/C=C/c2nc3n(n2)CCCC3c2cc(F)c(F)c(F)c2)cnc1-n1cnc(C)c1 (single isomer, unassigned) [Example 60, (−)-2-{(E)-2-[5-methoxy-6-(4-methyl-1H-imidazol-1-yl)pyridin-3-yl]vinyl}-8-(3,4,5-trifluorophenyl)-5,6,7,8-tetrahydro[1,2,4]triazolo[1,5-a]pyridine]",40 nM
7,"Cc1cn(-c2ccc(/C=C/c3nc4n(n3)CCCC4c3cc(F)c(F)c(F)c3)cc2F)cn1 (single isomer, unassigned) [Example 62, (−)-2-{(E)-2-[3-fluoro-4-(4-methyl-1H-imidazol-1-yl)phenyl]vinyl}-8-(3,4,5-trifluorophenyl)-5,6,7,8-tetrahydro[1,2,4]triazolo[1,5-a]pyridine]",23 nM
8,"COc1cc(/C=C/c2nc3n(n2)CCC[C@@H]3c2c(F)cc(F)cc2F)ccc1-n1cnc(C)c1 (single isomer, unassigned) [Example 64, (−)-2-{(E)-2-[3-methoxy-4-(4-methyl-1H-imidazol-1-yl)phenyl]vinyl}-8-(2,4,6-trifluorophenyl)-5,6,7,8-tetrahydro[1,2,4]triazolo[1,5-a]pyridine]",28 nM
9,"COc1cc(/C=C/c2nc3n(n2)CCCC3(O)c2cc(F)c(F)c(F)c2)ccc1-n1cnc(C)c1 (single isomer, unassigned) [Example 66, (−)-2-{(E)-2-[3-methoxy-4-(4-methyl-1H-imidazol-1-yl)phenyl]vinyl}-8-(3,4,5-trifluorophenyl)-5,6,7,8-tetrahydro[1,2,4]triazolo[1,5-a]pyridin-8-ol]",20 nM
10,"COc1cc(/C=C/c2nc3n(n2)CCC[C@@H]3c2cc(F)c(F)c(F)c2)c(F)cc1-n1cnc(C)c1 (single isomer, unassigned) [Example 69, (−)-2-{(E)-2-[2-fluoro-5-methoxy-4-(4-methyl-1H-imidazol-1-yl)phenyl]vinyl}-8-(3,4,5-trifluorophenyl)-5,6,7,8-tetrahydro[1,2,4]triazolo[1,5-a]pyridine]",74 nM
11,"COc1ccc([C@@H]2CCCn3nc(/C=C/c4ccc(-n5cnc(C)c5)c(OC)c4)nc32)cc1 (single isomer, unassigned) [Example 75, (−)-2-{(E)-2-[3-methoxy-4-(4-methyl-1H-imidazol-1-yl)phenyl]vinyl}-8-(4-methoxyphenyl)-5,6,7,8-tetrahydro-[1,2,4]triazolo[1,5-a]pyridine]",45 nM
12,"COc1cc(/C=C/c2nc3n(n2)CCO[C@H]3c2cc(F)c(F)c(F)c2)ccc1-n1cnc(C)c1 (single isomer, unassigned) [Example 77, (−)-2-{(E)-2-[3-methoxy-4-(4-methyl-1H-imidazol-1-yl)phenyl]vinyl}-8-(3,4,5-trifluorophenyl)-5,6-dihydro-8H-[1,2,4]triazolo[5,1-c][1,4]oxazine]",83 nM
13,"COc1cc(/C=C/c2nc3n(n2)CCC3c2cc(F)c(F)c(F)c2)ccc1-n1cnc(C)c1 (single isomer, unassigned) [Example 113, (−)-2-{(E)-2-[3-methoxy-4-(4-methyl-1H-imidazol-1-yl)phenyl]vinyl}-7-(3,4,5-trifluorophenyl)-6,7-dihydro-5H-pyrrolo[1,2-b][1,2,4]triazole]",32 nM
14,"COc1cc(/C=C/c2nc3n(n2)CCCC3c2cccc3ccccc23)ccc1-n1cnc(C)c1 (single isomer, unassigned) [Example 130, (+)-2-{(E)-2-[3-methoxy-4-(4-methyl-1H-imidazol-1-yl)phenyl]vinyl}-8-naphthalen-1-yl-5,6,7,8-tetrahydro[1,2,4]triazolo[1,5-a]pyridine]",13 nM
15,"COc1cc(/C=C/c2nc3n(n2)CCOC3c2ccc(OC(F)(F)F)cc2)ccc1-n1cnc(C)c1 (single isomer, unassigned) [Example 135, (−)-2-{(E)-2-[3-methoxy-4-(4-methyl-1H-imidazol-1-yl)phenyl]vinyl}-8-(4-trifluoromethoxyphenyl)-5,6-dihydro-8H-[1,2,4]triazolo[5,1-c][1,4]oxazine]",43 nM
16,"COc1cc(/C=C/c2nc3n(n2)CCC[C@@]3(O)c2cccc3ccccc23)ccc1-n1cnc(C)c1 (single isomer, unassigned) [Example 136, (−)-2-{(E)-2-[3-methoxy-4-(4-methyl-1H-imidazol-1-yl)phenyl]vinyl}-8-naphthalen-1-yl-5,6,7,8-tetrahydro[1,2,4]triazolo[1,5-a]pyridin-8-ol]",24 nM
17,"COc1cc(/C=C/c2nc3n(n2)CCO[C@H]3c2ccc(C)cc2)ccc1-n1cnc(C)c1 (single isomer, unassigned) [Example 138, (−)-2-{(E)-2-[3-methoxy-4-(4-methyl-1H-imidazol-1-yl)phenyl]vinyl}-8-p-tolyl-5,6-dihydro-8H-[1,2,4]triazolo[5,1-c][1,4]oxazine]",47 nM
18,"COc1cc(/C=C/c2nc3n(n2)CCC[C@@H]3c2ccc(Cl)cc2)ccc1-n1cnc(C)c1 (single isomer, unassigned) [Example 149, (−)-8-(4-chlorophenyl)-2-{(E)-2-[3-methoxy-4-(4-methyl-1H-imidazol-1-yl)phenyl]vinyl}-5,6,7,8-tetrahydro[1,2,4]triazolo[1,5-a]pyridine]",21 nM
19,"COc1cc(/C=C/c2nc3n(n2)CCCC3c2ccc(C)cc2)ccc1-n1cnc(C)c1 (single isomer, unassigned) [Example 151, (−)-2-{(E)-2-[3-methoxy-4-(4-methyl-1H-imidazol-1-yl)phenyl]vinyl}-8-p-tolyl-5,6,7,8-tetrahydro[1,2,4]triazolo[1,5-a]pyridine]",16 nM
